Assay results: patent US7105527B2, “N4-acylcytosine nucleosides for treatment of viral infections” (priority 2001, dated 2006)
Read-outs that look alike come from different tables or passages of the source.

Experiments:
Vero cells = experiment: Cytotoxicity assay in Vero cells; assay type: cell-based; details: Table 2, read-out: Cytotoxicity in different cells (IC50, μM) Vero
Procedure: (§1) The toxicity of the compounds was assessed in Vero, human PBM, CEM (human lymphoblastoid), MT-2, and HepG2 cells, as described previously (Schinazi […]., Cannon D. L., Xie […]., Smith […]. […] Cycloheximide was included as positive cytotoxic control, and untreated cells exposed to solvent were included as negative controls. The cytotoxicity IC50 was obtained from the concentration-response curve using the median effective method described previously (Chou […]. […] Belen'kii M. S. & Schinazi R. F.

HIV-1NL4-3 = experiment: Anti-HIV assay in MT-4 cells, consensus p24 assay; assay type: cell-based
Procedure: (§2) In a second antiviral testing system, the potency of the compounds was determined by measurement of viral RNA accumulation in HIV-1RF infected MT-2 cells (Bacheler L T, Paul M, Otto M J, Jadhav P K, Stone B A & Miller J A (1994) An assay for HIV RNIn infected cell lysates, and its use for rapid evaluation of antiviral efficacy. Antivir. Chem. Chemother. 5:111–121). The virus titer was established to determine the dilution producing 15 to 30 ng/RNA per well of HIV RNIn 3 days of infection. HIV-1 RNA was quantified using biotinylated capture and alkaline phosphatase-derivatized reporter oligonucleotides as described previously (Charvet A-S, Camplo M, Faury P, Graciet J C, Mourier N, Chermann J C & Kraus J L (1994) Inhibition of human immunodeficiency virus type 1 replication by phosphonoformate- and phosphonoacetate-2′,3′-dideoxy-3′-thiacytidine conjugates. J. Med. Chem. 37:2216–2223). In a third system, the effect of analogs on the replication of HIV-1NL4-3 was determined via the InterCompany Consortium consensus p24 assay as previously described (Jadhav P K & MacKay M F (1997) Cyclic urea amide: HIV-1 protease inhibitors with low nanomolar potency against both wild types and protease inhibitor resistant mutants of HIV. J. Med. Chem. 40:181–190). Recombinant viruses were recovered by transfecting the appropriate NL4-3 plasmid by lipofection. Virus stocks recovered 7 to 10 days post-transfection were titered on MT-4 cells to determine if the dilution produced 1,000 to 3,000 ng p24 in 4 days. This dilution was then used in drug susceptibility assays, where drug was added 24 h post infection of cells, and p24 quantified by ELISA 3 days later.

[1] = system: CEM (human lymphoblastoid) cells; experiment: Cytotoxicity assay in CEM cells; assay type: cell-based; details: Table 2, read-out: Cytotoxicity in different cells (IC50, μM) CEM
Procedure: as §1

HIV-1RF = experiment: Anti-HIV (in MT-2 cells) assay, viral RNA accumulation; assay type: cell-based; details: EC90, MT-2 cells, read-out: Anti-HIV-1 activity in different cells (EC90, μM) MT-2
Procedure: as §2

HepG2 cells = experiment: Cytotoxicity assay in HepG2 cells; assay type: cell-based; details: Table 2, read-out: Cytotoxicity in different cells (IC50, μM) HepG2
Procedure: as §1

human PBM cells = experiment: Cytotoxicity assay in PBM cells; assay type: cell-based; details: Table 2, read-out: Cytotoxicity in different cells (IC50, μM) PBM
Procedure: as §1

MT-2 cells = experiment: Cytotoxicity assay in MT-2 cells; assay type: cell-based; details: Table 2, read-out: Cytotoxicity in different cells (IC50, μM) MT-2
Procedure: as §1

HIV-1LAl = experiment: Anti-HIV (in PBM cells) assay, reverse transcriptase readout; assay type: cell-based
Procedure: Anti-HIV-1 activity of the compounds was determined in human peripheral blood mononuclear (PBM) cells as described previously (Schinazi […]., Cannon D., Mathis R., Lloyd R. M. Jr., […]., St. Clair M., Wilson J., Furman P. A., Painter G., Choi […]. Antimicrob. Agents Chemother. 1992, 36, 2423; Schinazi […]., Cannon D., Xie […]., Smith G., Hahn E. Antimicrob. Agents Chemother. 1990, 34, 1061). Stock solutions ([…]) of the compounds were prepared in sterile DMSO and then diluted to the desired concentration in growth medium. […] Virus obtained from the cell supernatant was quantified on day 6 after infection by a reverse transcriptase assay using (rA)n.(dT)12.18 as template-primer. […] AZT was included as positive control. The antiviral EC50 and EC90 were obtained from the concentration-response curve using the median effective method described previously (Chou […]. Enzyme Regul. 1984, 22, 27-55; Belen'kii M. S. & Schinazi R. F. Antiviral Res. 1994, 25, 1-11).

[2] = Cytotoxicity assay in Vero cells; assay type: cell-based; details: African green monkey
Procedure: as §1

[3] = Cytotoxicity assay in CEM cells; assay type: cell-based, human; details: human, CEM lymphoblastoid cells
Procedure: as §1

[4] = Cytotoxicity assay in HepG2 cells; assay type: cell-based; details: human
Procedure: as §1

[5] = Cytotoxicity assay in PBM cells; assay type: cell-based, human; details: human, human PBM cells
Procedure: as §1

[6] = Cytotoxicity assay in MT-2 cells; assay type: cell-based; details: human
Procedure: as §1

[7] = Table 1, read-out: Cytotoxicity in different cells (IC50, μM) Vero
[8] = Human immunodeficiency virus 1, MT4, Table 1, read-out: Anti-HIV-1 activity in different cells (EC90, μM) MT-4
[9] = Table 1, read-out: Cytotoxicity in different cells (IC50, μM) CEM
[10] = Human immunodeficiency virus 1, MT2, Table 1
[11] = Table 1, read-out: Cytotoxicity in different cells (IC50, μM) HepG2
[12] = Table 1, read-out: Cytotoxicity in different cells (IC50, μM) PBM
[13] = Table 1, read-out: Cytotoxicity in different cells (IC50, μM) MT-2
[14] = Human immunodeficiency virus 1, PBMC, Table 1, read-out: Anti-HIV-1 activity in different cells (EC90, μM) PBM
[15] = Table 2, read-out: Cytotoxicity in different cells (IC50, μM) Vero
[16] = Human immunodeficiency virus 1, MT4, Table 2, read-out: Anti-HIV-1 activity in different cells (EC90, μM) MT-4
[17] = Table 2, read-out: Cytotoxicity in different cells (IC50, μM) CEM
[18] = Human immunodeficiency virus 1, MT2, Table 2
[19] = Table 2, read-out: Cytotoxicity in different cells (IC50, μM) HepG2
[20] = Table 2, read-out: Cytotoxicity in different cells (IC50, μM) PBM
[21] = Table 2, read-out: Cytotoxicity in different cells (IC50, μM) MT-2
[22] = Human immunodeficiency virus 1, PBMC, Table 2, read-out: Anti-HIV-1 activity in different cells (EC90, μM) PBM

SMILES | IC50 [2, 7] | EC90 (HIV-1NL4-3; [8]) | IC50 [3, 9] | EC90 (HIV-1RF; [10]) | IC50 [4, 11] | IC50 [5, 12] | IC50 [6, 13] | EC90 (HIV-1LAl; [14]) | also measured
O=C(Nc1nc(=O)n([C@H]2C=C[C@@H](CO)O2)cc1F)c1cccc(Br)c1 [Compound 41, β-D-N^4-(3-Bromobenzoyl)-2′,3′-didehydro-2′,3′-dideoxy-5-fluorocytidine] |  |  |  |  |  |  |  |  | IC50 (Vero cells): 99.7 µM; EC90 (HIV-1NL4-3; Table 2, read-out: Anti-HIV-1 activity in different cells (EC90, μM) MT-4): 2.2 µM; IC50 [1]: 24.9 µM; EC90 (HIV-1RF; Table 2): 1 µM; IC50 (HepG2 cells): > 100 µM; IC50 (human PBM cells): 51.6 µM; IC50 (MT-2 cells): > 50 µM; EC90 (HIV-1LAl; Table 2, read-out: Anti-HIV-1 activity in different cells (EC90, μM) PBM): 1.71 µM
O=C(Nc1nc(=O)n([C@H]2CC[C@@H](CO)O2)cc1F)c1ccc(Cl)cc1 [Compound 12, β-D-N^4-(4-chlororobenzoyl)-2′,3′-dideoxy-5-fluorocytidine] | > 100 µM | 0.37 µM | 33.4 µM | 0.22 µM | 7.3 µM | > 100 µM | > 50 µM | 0.02 µM | 
O=C(Nc1nc(=O)n([C@H]2CC[C@@H](CO)O2)cc1F)c1ccc(Br)cc1 [Compound 13, β-D-N^4-(4-bromobenzoyl)-2′,3′-dideoxy-5-fluorocytidine] | > 100 µM | 0.3 µM | 31.6 µM | 0.14 µM | > 100 µM | > 100 µM | > 50 µM | 0.03 µM | 
O=C(Nc1nc(=O)n([C@H]2CC[C@@H](CO)O2)cc1F)c1cccc(Cl)c1 [Compound 15, β-D-N^4-(3-Chlorobenzoyl)-2′,3′-dideoxy-5-fluorocytidine] | 91.6 µM | 0.51 µM | 68.1 µM | 0.4 µM | > 100 µM | > 100 µM | > 50 µM | 0.08 µM | 
O=C(Nc1nc(=O)n([C@H]2CC[C@@H](CO)O2)cc1F)c1cccc(Br)c1 [Compound 16, β-D-N^4-(3-Bromobenzoyl)-2′,3′-dideoxy-5-fluorocytidine] | 80.6 µM | 0.42 µM | 40.6 µM | 0.51 µM | > 100 µM | > 100 µM | > 50 µM | 0.145 µM | 
O=C(Nc1nc(=O)n([C@H]2CC[C@@H](CO)O2)cc1F)c1cccc(F)c1 [Compound 14, β-D-2′,3′-Dideoxy-5-fluoro-M-(3-fluorobenzoyl)cytidine] | > 100 µM | 0.43 µM | 80.8 µM | 0.46 µM | > 100 µM | > 100 µM | > 50 µM | 0.106 µM | 
Cc1ccc(C(=O)Nc2nc(=O)n([C@H]3CC[C@@H](CO)O3)cc2F)cc1 [Compound 22, β-D-2′,3′-Dideoxy-5-fluoro-N^4-p-toluoylcytidine] | > 100 µM | 0.23 µM | > 100 µM | 0.31 µM | > 100 µM | > 100 µM | > 50 µM | 0.028 µM | 
CCCc1ccc(C(=O)Nc2nc(=O)n([C@H]3CC[C@@H](CO)O3)cc2F)cc1 [Compound 26, β-D-2′,3′-Dideoxy-5-fluoro-N^4-(4-n-propylbenzoyl)cytidine] | > 100 µM | 0.22 µM | > 100 µM | 0.1 µM | > 100 µM | > 100 µM | > 50 µM | 0.017 µM | 
O=C(Nc1nc(=O)n([C@H]2C=C[C@@H](CO)O2)cc1F)c1ccc(Cl)cc1 [Compound 36, β-D-N^4-(4-Chlorobenzoyl)-2′,3′-didehydro-2′,3′-dideoxy-5-fluorocytidine] |  |  |  |  |  |  |  |  | IC50 [2, 15]: 72.2 µM; EC90 (HIV-1NL4-3; [16]): 1.9 µM; IC50 [3, 17]: 16.8 µM; EC90 (HIV-1RF; [18]): 0.23 µM; IC50 [4, 19]: > 100 µM; IC50 [5, 20]: 11.9 µM; IC50 [6, 21]: > 50 µM; EC90 (HIV-1LAl; [22]): 0.48 µM
O=C(Nc1nc(=O)n([C@H]2C=C[C@@H](CO)O2)cc1F)c1ccc(Br)cc1 [Compound 37, β-D-N^4-(4-Bromobenzoyl)-2,3′-didehydro-2′,3′-dideoxy-5-fluorocytidine] |  |  |  |  |  |  |  |  | IC50 [2, 15]: 40.5 µM; EC90 (HIV-1NL4-3; [16]): 5.2 µM; IC50 [3, 17]: 24 µM; EC90 (HIV-1RF; [18]): 0.14 µM; IC50 [4, 19]: > 100 µM; IC50 [5, 20]: 53 µM; IC50 [6, 21]: > 50 µM; EC90 (HIV-1LAl; [22]): 1.4 µM
O=C(Nc1nc(=O)n([C@H]2CC[C@@H](CO)O2)cc1F)c1ccc(I)cc1 [Compound 10, β-D-2′,3′-Dideoxy-5-fluoro-N^4-(4-iodobenzoyl)cytidine] | > 100 µM | 0.17 µM | > 100 µM | 0.025 µM | > 100 µM | > 100 µM | > 50 µM | 0.019 µM | 
O=C(Nc1nc(=O)n([C@H]2CC[C@@H](CO)O2)cc1F)c1ccc([N+](=O)[O-])cc1 [Compound 18, β-D-2′,3′-Dideoxy-5-fluoro-N^4-(4-nitrobenzoyl)cytidine] | > 100 µM | 0.3 µM | > 100 µM | 0.4 µM | > 100 µM | > 100 µM | > 50 µM | 0.18 µM | 
O=C(Nc1nc(=O)n([C@H]2C=C[C@@H](CO)O2)cc1F)c1ccc(I)cc1 [Compound 38, β-D-2′,3′-Didehydro-2′,3′-dideoxy-5-fluoro-N^4-(4-iodobenzoyl)cytidine] |  |  |  |  |  |  |  |  | IC50 [2, 15]: 100 µM; EC90 (HIV-1NL4-3; [16]): 0.85 µM; IC50 [3, 17]: 11.4 µM; EC90 (HIV-1RF; [18]): 0.31 µM; IC50 [4, 19]: > 100 µM; IC50 [5, 20]: 57 µM; IC50 [6, 21]: > 50 µM; EC90 (HIV-1LAl; [22]): 0.76 µM
O=C(Nc1nc(=O)n([C@H]2C=C[C@@H](CO)O2)cc1F)c1ccc(F)cc1 [Compound 35, β-D-2′,3′-Didehydro-2′,3′-dideoxy-5-fluoro-N^4-(4-fluorobenzoyl)cytidine] |  |  |  |  |  |  |  |  | IC50 [2, 15]: 83.1 µM; EC90 (HIV-1NL4-3; [16]): 7.2 µM; IC50 [3, 17]: 51.3 µM; EC90 (HIV-1RF; [18]): 0.88 µM; IC50 [4, 19]: 93.6 µM; IC50 [5, 20]: 53.1 µM; IC50 [6, 21]: > 50 µM; EC90 (HIV-1LAl; [22]): 1.08 µM
